We go through four compounds from paper PMC3914206.

Assay type in all cases: binding
Holding throughout (design): KINOMEscan: ABL1(F317L)-phosphorylated / KINOMEscan: ABL1(H396P)-nonphosphorylated / KINOMEscan: ABL1(H396P)-phosphorylated / KINOMEscan: ABL1(M351T)-phosphorylated / KINOMEscan: ABL1(T315I)-phosphorylated / KINOMEscan: ABL1-nonphosphorylated / KINOMEscan: ABL1-phosphorylated / KINOMEscan: ACVR2A / KINOMEscan: ACVR2B / KINOMEscan: ADCK3 / KINOMEscan: ADCK4 / KINOMEscan: AKT1 / KINOMEscan: AKT3 / KINOMEscan: ALK / KINOMEscan: ARK5 / KINOMEscan: AURKA / KINOMEscan: AURKC / KINOMEscan: BIKE / KINOMEscan: BMPR1A / KINOMEscan: BMPR1B / KINOMEscan: BMX / KINOMEscan: BRK / KINOMEscan: BRSK1 / KINOMEscan: BRSK2 / KINOMEscan: CAMK1 / KINOMEscan: CAMK1D / KINOMEscan: CAMK1G / KINOMEscan: CAMK2A / KINOMEscan: CAMK2B / KINOMEscan: AAK1 / KINOMEscan: CAMK2D / KINOMEscan: CAMK2G / KINOMEscan: ABL1(F317I)-nonphosphorylated / KINOMEscan: ABL1(F317I)-phosphorylated / KINOMEscan: ABL1(F317L)-nonphosphorylated: unit: % Ctrl
Common to all, as to conditions: Compound Concentration 10 µM

The target in assay [1] is T1, panel of 442 kinases (Homo sapiens, UniProt O00238).
T1 construct: purchased KINOMEscan
From the text: (§1) We assessed the selectivity of members of this scaffold using the KINOMEscan methodology across a near comprehensive panel of 442 kinases [[18,27]].

Assay [2] has as its target T2, panel of 442 kinases (Homo sapiens, UniProt P00519, Q252H).
T2 construct: purchased KINOMEscan
From the text: as §1

For assay [3], the target named is T3, panel of 442 kinases (Homo sapiens, UniProt P36888, R834Q).
T3 construct: purchased KINOMEscan
T3 sequence (P36888 27-993 R834Q): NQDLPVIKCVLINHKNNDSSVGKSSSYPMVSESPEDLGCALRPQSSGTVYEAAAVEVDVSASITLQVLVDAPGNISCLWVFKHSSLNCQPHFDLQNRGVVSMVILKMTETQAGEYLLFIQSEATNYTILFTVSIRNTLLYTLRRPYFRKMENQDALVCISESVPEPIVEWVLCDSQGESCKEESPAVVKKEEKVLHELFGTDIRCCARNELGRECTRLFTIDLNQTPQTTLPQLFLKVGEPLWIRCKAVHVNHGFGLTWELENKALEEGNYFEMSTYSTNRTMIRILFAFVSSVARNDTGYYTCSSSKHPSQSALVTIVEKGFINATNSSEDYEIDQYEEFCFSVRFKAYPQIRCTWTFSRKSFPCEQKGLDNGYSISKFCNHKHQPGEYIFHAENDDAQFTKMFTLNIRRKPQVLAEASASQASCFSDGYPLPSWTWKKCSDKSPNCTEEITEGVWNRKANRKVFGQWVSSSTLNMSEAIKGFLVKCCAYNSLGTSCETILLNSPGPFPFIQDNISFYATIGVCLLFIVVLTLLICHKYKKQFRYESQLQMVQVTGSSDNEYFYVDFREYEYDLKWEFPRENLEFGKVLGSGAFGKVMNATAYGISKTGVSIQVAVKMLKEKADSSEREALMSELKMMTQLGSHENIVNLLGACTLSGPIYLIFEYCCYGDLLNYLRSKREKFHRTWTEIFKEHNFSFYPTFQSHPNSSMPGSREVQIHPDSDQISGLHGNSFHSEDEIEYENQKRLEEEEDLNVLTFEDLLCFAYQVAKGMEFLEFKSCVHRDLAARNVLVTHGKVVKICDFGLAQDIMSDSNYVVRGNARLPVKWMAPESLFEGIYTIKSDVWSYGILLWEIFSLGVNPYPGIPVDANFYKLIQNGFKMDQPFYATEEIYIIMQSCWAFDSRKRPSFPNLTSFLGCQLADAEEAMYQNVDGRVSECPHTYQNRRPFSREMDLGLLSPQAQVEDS
From the text: as §1

T1 sequence (O00238 14-502): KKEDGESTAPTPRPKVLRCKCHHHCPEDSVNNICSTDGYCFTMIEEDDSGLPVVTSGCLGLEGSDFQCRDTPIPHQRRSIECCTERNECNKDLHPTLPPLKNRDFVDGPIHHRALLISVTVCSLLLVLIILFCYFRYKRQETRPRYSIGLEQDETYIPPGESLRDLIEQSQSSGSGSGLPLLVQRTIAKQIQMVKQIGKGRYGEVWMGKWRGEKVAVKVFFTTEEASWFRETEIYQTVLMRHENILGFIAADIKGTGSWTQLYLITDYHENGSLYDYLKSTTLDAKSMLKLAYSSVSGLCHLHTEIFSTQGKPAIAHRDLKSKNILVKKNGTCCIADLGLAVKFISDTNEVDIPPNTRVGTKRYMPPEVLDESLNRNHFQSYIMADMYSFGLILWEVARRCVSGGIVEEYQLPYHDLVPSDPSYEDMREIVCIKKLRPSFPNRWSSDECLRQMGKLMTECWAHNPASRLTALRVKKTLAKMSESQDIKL

For the compound `COc1cc(C(=O)N2CCC(N3CCN(C)CC3)CC2)ccc1Nc1ncc2c(n1)N(C1CCCC1)c1ccccc1C(=O)N2C` [Compound 25, 11-cyclopentyl-2-((2-methoxy-4-(4-(4-methylpiperazin-1-yl)piperidine-1-carbonyl)phenyl)amino)-5-methyl-5H-benzo[e]pyrimido[5,4-b][1,4]diazepin-6(11H)-one], the “KINOMEscan: BMPR1B” value on panel of 442 kinases [1] is reported as 98. For the same compound, on panel of 442 kinases [2], the “KINOMEscan: ABL1(Q252H)-nonphosphorylated” value was 89 and the “KINOMEscan: ABL1(Q252H)-phosphorylated” value came to 83. The “KINOMEscan: FLT3(R834Q)” value on panel of 442 kinases [3] is on record as 100.

Turning to `COc1cc(C(=O)N2CCC(N3CCN(C)CC3)CC2)ccc1Nc1ncc2c(n1)N1CCc3cccc(c31)C(=O)N2C` [Compound 24], the “KINOMEscan: BMPR1B” value at panel of 442 kinases [1] is recorded as 97. Also, at panel of 442 kinases [3], the “KINOMEscan: FLT3(R834Q)” value came out at 100.

Consider `COc1cc(C(=O)N2CCC(N3CCN(C)CC3)CC2)ccc1Nc1ncc2c(n1)N(C)c1ccccc1C(=O)N2C` [15 (LRRK2-IN-1)], for which the “KINOMEscan: BMPR1B” value on panel of 442 kinases [1] is 76. On panel of 442 kinases [2], the “KINOMEscan: ABL1(Q252H)-nonphosphorylated” value is listed as 100 and the “KINOMEscan: ABL1(Q252H)-phosphorylated” value amounted to 100. In addition, on panel of 442 kinases [3], the “KINOMEscan: FLT3(R834Q)” value is on record as 100.

Regarding `CCOc1cc(C(=O)N2CCC(N3CCN(C)CC3)CC2)ccc1Nc1ncc2c(n1)N(C1CCCC1)c1ccccc1C(=O)N2C` [Compound 26], the “KINOMEscan: BMPR1B” value on panel of 442 kinases [1] came out at 100. In addition, at panel of 442 kinases [2], the “KINOMEscan: ABL1(Q252H)-nonphosphorylated” value was determined as 100 and the “KINOMEscan: ABL1(Q252H)-phosphorylated” value was 100. For the same compound, the “KINOMEscan: FLT3(R834Q)” value on panel of 442 kinases [3] came out at 100.
